Source: PubChem BioAssay (NCI)
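How tested: cells in 96-well plates exposed to compound for 48 hours at five concentrations. TGI: total growth inhibition.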

How the values were obtained:
Experiment in all cases: NCI tumour cell line growth inhibition, 48 h
ACHN renal = system: ACHN renal
BT-549 breast = system: BT-549 breast
NCI-H522 lung = system: NCI-H522 lung
SK-MEL-5 melanoma = system: SK-MEL-5 melanoma
U251 CNS = system: U251 CNS
HOP-62 NSCLC = system: HOP-62 NSCLC
SW-620 colon = system: SW-620 colon
SN12C renal = system: SN12C renal
CAKI-1 renal = system: CAKI-1 renal
UACC-257 melanoma = system: UACC-257 melanoma
SK-OV-3 ovarian = system: SK-OV-3 ovarian
SF-295 CNS = system: SF-295 CNS
OVCAR-4 ovarian = system: OVCAR-4 ovarian
HL-60(TB) leukemia = system: HL-60(TB) leukemia
OVCAR-3 ovarian = system: OVCAR-3 ovarian
A549 NSCLC = system: A549 NSCLC
SK-MEL-2 melanoma = system: SK-MEL-2 melanoma
NCI-H460 lung = system: NCI-H460 lung
SR leukemia = system: SR leukemia
HCT-116 colon = system: HCT-116 colon
HT29 colon = system: HT29 colon
DU-145 prostate = system: DU-145 prostate
CCRF-CEM leukemia = system: CCRF-CEM leukemia
COLO 205 colon = system: COLO 205 colon
M14 melanoma = system: M14 melanoma
NCI-H23 lung = system: NCI-H23 lung
SNB-75 CNS = system: SNB-75 CNS
MDA-MB-435 = system: MDA-MB-435
UO-31 renal = system: UO-31 renal
K-562 leukemia = system: K-562 leukemia
MDA-MB-231 breast = system: MDA-MB-231 breast
HCT-15 colon = system: HCT-15 colon
A498 renal = system: A498 renal
MCF7 breast = system: MCF7 breast
MOLT-4 leukemia = system: MOLT-4 leukemia
SF-268 CNS = system: SF-268 CNS
PC-3 prostate = system: PC-3 prostate
OVCAR-8 ovarian = system: OVCAR-8 ovarian
SK-MEL-28 melanoma = system: SK-MEL-28 melanoma
786-0 renal = system: 786-0 renal
HS 578T breast = system: HS 578T breast
TK-10 renal = system: TK-10 renal
RXF 393 renal = system: RXF 393 renal
LOX IMVI melanoma = system: LOX IMVI melanoma
NCI/ADR-RES ovarian = system: NCI/ADR-RES ovarian
IGROV1 ovarian = system: IGROV1 ovarian
OVCAR-5 ovarian = system: OVCAR-5 ovarian
SNB-19 CNS = system: SNB-19 CNS
SF-539 CNS = system: SF-539 CNS
HOP-92 NSCLC = system: HOP-92 NSCLC
RPMI-8226 leukemia = system: RPMI-8226 leukemia
T-47D breast = system: T-47D breast
KM12 colon = system: KM12 colon
HCC-2998 colon = system: HCC-2998 colon
EKVX NSCLC = system: EKVX NSCLC
UACC-62 melanoma = system: UACC-62 melanoma
MALME-3M melanoma = system: MALME-3M melanoma
NCI-H226 lung = system: NCI-H226 lung
MDA-N = system: MDA-N

Work on `CCN(CC)CCNc1ccc2ncn3c4cc(OC)c(OC)c(=O)c4c(O)c1c23` yielded a TGI (ACHN renal) of 20.5 µM, a TGI (BT-549 breast) of 30.5 µM and a TGI (NCI-H522 lung) of 25.9 µM. The TGI (SK-MEL-5 melanoma) was 29.8 µM, the TGI (U251 CNS) was 28 µM and the TGI (HOP-62 NSCLC) was 28.2 µM. It also gave a TGI (SW-620 colon) of 16.5 µM, a TGI (SN12C renal) of 21.5 µM and a TGI (CAKI-1 renal) of 28.9 µM. The TGI (UACC-257 melanoma) was 44.2 µM, the TGI (SK-OV-3 ovarian) was 28.8 µM and the TGI (SF-295 CNS) was 23.6 µM. The TGI (OVCAR-4 ovarian) was 24.4 µM, the TGI (HL-60(TB) leukemia) was 26.3 µM and the TGI (OVCAR-3 ovarian) was 31.7 µM. It also gave a TGI (A549 NSCLC) of 35.1 µM, a TGI (SK-MEL-2 melanoma) of 42.7 µM and a TGI (NCI-H460 lung) of 15.6 µM. It also gave a TGI (SR leukemia) of 16.2 µM, a TGI (HCT-116 colon) of 5.82 µM and a TGI (HT29 colon) of 19.8 µM. It also gave a TGI (DU-145 prostate) of 23.5 µM, a TGI (CCRF-CEM leukemia) of 53.1 µM and a TGI (COLO 205 colon) of 17.4 µM. The TGI (M14 melanoma) was 30.3 µM, the TGI (NCI-H23 lung) was 26.3 µM and the TGI (SNB-75 CNS) was 16.5 µM. The TGI (MDA-MB-435) was 26.9 µM, the TGI (UO-31 renal) was 25.7 µM and the TGI (K-562 leukemia) was 50.7 µM. The TGI (MDA-MB-231 breast) was 20.7 µM, the TGI (HCT-15 colon) was 24.7 µM and the TGI (A498 renal) was 29.5 µM. The TGI (MCF7 breast) was 15.2 µM, the TGI (MOLT-4 leukemia) was 11.5 µM and the TGI (SF-268 CNS) was 17.6 µM. The TGI (PC-3 prostate) was 21 µM, the TGI (OVCAR-8 ovarian) was 27.9 µM and the TGI (SK-MEL-28 melanoma) was 27.5 µM. The TGI (786-0 renal) was 26.4 µM, the TGI (HS 578T breast) was 29.1 µM and the TGI (TK-10 renal) was 31.6 µM. The TGI (RXF 393 renal) was 6.26 µM, the TGI (LOX IMVI melanoma) was 2.74 µM and the TGI (NCI/ADR-RES ovarian) was 41.8 µM. The TGI (IGROV1 ovarian) was 35.6 µM, the TGI (OVCAR-5 ovarian) was 45.4 µM and the TGI (SNB-19 CNS) was 22.6 µM. It also gave a TGI (SF-539 CNS) of 29 µM, a TGI (HOP-92 NSCLC) of 24.7 µM and a TGI (RPMI-8226 leukemia) of 20.2 µM. For the same compound, the TGI (T-47D breast) was 42.4 µM, the TGI (KM12 colon) was 23.2 µM and the TGI (HCC-2998 colon) was 23.2 µM. It also gave a TGI (EKVX NSCLC) of 33.2 µM, a TGI (UACC-62 melanoma) of 36.6 µM and a TGI (MALME-3M melanoma) of 36.8 µM. The TGI (NCI-H226 lung) was 45.6 µM.

`O=C(CCCN1CCC2(CC1)C(=NC1CCCCC1)NC(=O)N2c1ccccc1)c1ccc(F)cc1` gave a TGI (ACHN renal) of over 100 µM, a TGI (NCI-H522 lung) of 51.3 µM and a TGI (SK-MEL-5 melanoma) of 37.9 µM. The TGI (U251 CNS) was 81.1 µM, the TGI (HOP-62 NSCLC) was 37.5 µM and the TGI (SW-620 colon) was over 100 µM. For the same compound, the TGI (SN12C renal) was 40.7 µM, the TGI (CAKI-1 renal) was over 100 µM and the TGI (UACC-257 melanoma) was 36 µM. For the same compound, the TGI (SF-295 CNS) was 39.2 µM, the TGI (OVCAR-4 ovarian) was over 100 µM and the TGI (HL-60(TB) leukemia) was 57.4 µM. The TGI (OVCAR-3 ovarian) was 31.6 µM, the TGI (A549 NSCLC) was over 100 µM and the TGI (SK-MEL-2 melanoma) was 31.9 µM. It also gave a TGI (NCI-H460 lung) of 54.5 µM, a TGI (SR leukemia) of 46.1 µM and a TGI (HCT-116 colon) of 46.1 µM. For the same compound, the TGI (HT29 colon) was 37 µM, the TGI (DU-145 prostate) was over 100 µM and the TGI (CCRF-CEM leukemia) was 64.4 µM. The TGI (COLO 205 colon) was 31.2 µM, the TGI (M14 melanoma) was 32.8 µM and the TGI (NCI-H23 lung) was 48.1 µM. For the same compound, the TGI (SNB-75 CNS) was 56 µM, the TGI (MDA-MB-435) was 38.8 µM and the TGI (K-562 leukemia) was over 100 µM. It also gave a TGI (MDA-MB-231 breast) of 26.1 µM, a TGI (HCT-15 colon) of over 100 µM and a TGI (A498 renal) of 34.1 µM. It also gave a TGI (MCF7 breast) of 33.1 µM, a TGI (MOLT-4 leukemia) of 57.2 µM and a TGI (SF-268 CNS) of 40.1 µM. It also gave a TGI (PC-3 prostate) of 43.3 µM, a TGI (OVCAR-8 ovarian) of 68.4 µM and a TGI (SK-MEL-28 melanoma) of 34.2 µM. For the same compound, the TGI (786-0 renal) was 45 µM, the TGI (HS 578T breast) was 88.4 µM and the TGI (TK-10 renal) was 63.2 µM. The TGI (RXF 393 renal) was 89 µM, the TGI (LOX IMVI melanoma) was 30 µM and the TGI (NCI/ADR-RES ovarian) was 51.4 µM. The TGI (IGROV1 ovarian) was 62.2 µM, the TGI (OVCAR-5 ovarian) was 55 µM and the TGI (SNB-19 CNS) was over 100 µM. It also gave a TGI (SF-539 CNS) of 33.9 µM, a TGI (HOP-92 NSCLC) of 37.8 µM and a TGI (MDA-N) of 34.9 µM. For the same compound, the TGI (RPMI-8226 leukemia) was 49.5 µM, the TGI (T-47D breast) was 76.4 µM and the TGI (KM12 colon) was 42.5 µM. For the same compound, the TGI (HCC-2998 colon) was 37.7 µM, the TGI (EKVX NSCLC) was over 100 µM and the TGI (UACC-62 melanoma) was 46.5 µM. The TGI (MALME-3M melanoma) was 29.9 µM and the TGI (NCI-H226 lung) was 32.3 µM.
